Assay results taken from patent publication US20040023295A1, “Methods and systems for analyzing complex biological systems” (priority 2001, published 2004).
Entries after “also recorded” stand apart in the source; their conditions may differ.

How the values were obtained:
[1] = test system: Arabidopsis thaliana; assay: Gene expression profiling of sprayed Arabidopsis (MOA1); assay type: in vivo; conditions: for No. of Lethal Genes Altered: regulated genes identified as essential genes in internal database
[2] = test system: Arabidopsis thaliana plants; assay: Phenotypic analysis of herbicide-treated Arabidopsis plants (SOA1); assay type: in vivo; conditions: for characteristic symptoms (morphological phenotype): herbicide-treated Arabidopsis; for Dev. leafWidth: numeric values standardized to the average response for the mock treated tissues; for Dev. leafCurling / Dev. leafTwisting / Dev. matureLeafAnthocyanins / Dev. matureLeafChlorosis / Dev. matureLeafNecrosis / Dev. newLeafAnthocyanins / Dev. newLeafChlorosis / Dev. newLeafNecrosis / Dev. pointedLeaves: standardized to mock treated; for Symptom Class: three-week-old Arabidopsis sprayed with herbicide, phenotype classes of FIG. 12; for Dev. tMic: time for full range of symptoms at MIC, coded score
[3] = test system: Saccharomyces cerevisiae wild type strain BY4743; assay: Yeast azole drug experiment AF1: metabolite analysis (GC-MS, LC-MS); assay type: cell-based
[4] = test system: Arabidopsis thaliana; assay: Phenotypic profiling of Arabidopsis sprayed with unknown and commercial herbicides (MOA1); assay type: in vivo; conditions: Ward's method
[5] = test system: Arabidopsis thaliana; assay: Biochemical (metabolite) profiling by LC-MS and GC-MS of sprayed Arabidopsis (MOA1); conditions: for stress related (commonly regulated) metabolites: within one hour after spraying
[6] = test system: Magnaporthe grisea; assay type: cell-based
[7] = 1 hr, p < 0.5, arrays containing 22,000 Arabidopsis genes
[8] = early time points (20 min, 1 hour)

COc1nc(C)nc(NC(=O)NS(=O)(=O)c2ccccc2Cl)n1 [Chlorsulfuron]
No. of Lethal Genes Altered [1]: 8 | characteristic symptoms (morphological phenotype) [2]: anthocyanin accumulation in the older leaves accompanied by chlorosis of the newly emerging leaves

COC(=O)c1cc(Oc2ccc(Cl)cc2Cl)ccc1[N+](=O)[O-] [Bifenox]
characteristic symptoms (morphological phenotype) [2]: Necrotic leaf flecks

CCc1cnc(C2=NC(C)(C(C)C)C(=O)N2)c(C(=O)O)c1 (stereo not shown) [Imazethapyr]
characteristic symptoms (morphological phenotype) [2]: anthocyanin accumulation in the older leaves accompanied by chlorosis of the newly emerging leaves

O=C(O)c1cc(Oc2ccc(C(F)(F)F)cc2Cl)ccc1[N+](=O)[O-] [Acifluorfen]
characteristic symptoms (morphological phenotype) [2]: Necrotic leaf flecks

OC(Cn1cncn1)(Cn1cncn1)c1ccc(F)cc1F [Fluconazole]
Fold Change campesterol ([3]; GC): 0 | Fold Change desmosterol ([3]; GC): 0 | Fold Change octadecanoic acid ([3]; GC): 0.082 | Fold Change 4-methylcatechol ([3]; nLC): 0 | Fold Change 5hydroxyL-tryptophan ([3]; nLC): 0 | Fold Change 6-benzylaminopurine ([3]; nLC): 0 | Fold Change NacetylD-glucosamine ([3]; nLC): 0 | Fold Change NacetylL-ornithine ([3]; nLC): 0 | Fold Change abscisic acid ([3]; nLC): 0 | Fold Change adenine ([3]; nLC): 0 | Fold Change adenosine ([3]; nLC): 0 | Fold Change anthranilic acid ([3]; nLC): 0 | Fold Change argininosuccinate ([3]; nLC): 0 | Fold Change benzoic acid ([3]; nLC): 0 | Fold Change catechol ([3]; nLC): 0 | Fold Change cinnamic acid ([3]; nLC): 0 | Fold Change citricanoic/itaconi ([3]; nLC): 0 | Fold Change citrulline ([3]; nLC): 0 | Fold Change coumaric acid ([3]; nLC): 0 | Fold Change cytosine ([3]; nLC): 0 | Fold Change diaminopimelic acid ([3]; nLC): 0 | Fold Change dihydrofolic acid ([3]; nLC): 0 | Fold Change estrone ([3]; nLC): 0 | Fold Change farnesol ([3]; nLC): 0 | Fold Change folic acid ([3]; nLC): 0 | Fold Change gibberellic ([3]; nLC): 0 | Fold Change guanine ([3]; nLC): 0 | Fold Change histidine ([3]; nLC): 0 | Fold Change homogentisic/uric ([3]; nLC): 0 | Fold Change hydrocortisone ([3]; nLC): 0 | Fold Change indole3-pyruvic acid ([3]; nLC): 0 | Fold Change jasmonic acid ([3]; nLC): 0 | Fold Change kinetin ([3]; nLC): 0 | Fold Change luteolin ([3]; nLC): 0 | Fold Change malonic acid ([3]; nLC): 0 | Fold Change methionine ([3]; nLC): 0 | Fold Change orotic acid ([3]; nLC): 0 | Fold Change phenylpyruvic acid ([3]; nLC): 0 | Fold Change phosphoenolpyruvate ([3]; nLC): 0 | Fold Change pinitol ([3]; nLC): 0 | Fold Change porphobilinogen ([3]; nLC): 0 | Fold Change retinoic acid ([3]; nLC): 0 | Fold Change salicylic/HObenzoic ([3]; nLC): 0 | Fold Change shikimic acid ([3]; nLC): 0 | Fold Change sinapinic acid ([3]; nLC): 0 | Fold Change thymine ([3]; nLC): 0 | Fold Change urocanic acid ([3]; nLC): 0 | Fold Change xanthosine-DiH2O ([3]; nLC): 0 | Fold Change zeatin ([3]; nLC): 0 | Fold Change 4-aminobenzoic acid ([3]; pLC): 0 | Fold Change 4-methylcatechol ([3]; pLC): 0 | Fold Change 5hydroxyL-tryptophan ([3]; pLC): 0 | Fold Change 6benzylaminopurine ([3]; pLC): 0 | Fold Change NacetylD-glucosamine ([3]; pLC): 0 | Fold Change NacetylL-glutamate ([3]; pLC): 0 | Fold Change abscisic acid ([3]; pLC): 0 | Fold Change adenosine ([3]; pLC): 0 | Fold Change allantoic acid ([3]; pLC): 0 | Fold Change anthranilic acid ([3]; pLC): 0 | Fold Change argininosuccinate ([3]; pLC): 0 | Fold Change biotin ([3]; pLC): 0 | Fold Change caffeine ([3]; pLC): 0 | Fold Change citric acid TME ([3]; pLC): 0 | Fold Change cytidine ([3]; pLC): 0 | Fold Change cytosine ([3]; pLC): 0 | Fold Change diaminopimelic acid ([3]; pLC): 0 | Fold Change dihydrofolic acid ([3]; pLC): 0 | Fold Change dipicolinic acid ([3]; pLC): 0 | Fold Change folic acid ([3]; pLC): 0 | Fold Change glucosamine ([3]; pLC): 0 | Fold Change glucosamine6PO4 ([3]; pLC): 0 | Fold Change histidine ([3]; pLC): 0 | Fold Change hydrocortisone ([3]; pLC): 0 | Fold Change itaconic acid dimes ([3]; pLC): 0 | Fold Change kinetin ([3]; pLC): 0 | Fold Change luteolin ([3]; pLC): 0 | Fold Change niacinamide ([3]; pLC): 0 | Fold Change nopaline ([3]; pLC): 0 | Fold Change phosphoenolpyruvate ([3]; pLC): 0 | Fold Change progesterone ([3]; pLC): 0 | Fold Change riboflavin ([3]; pLC): 0 | Fold Change sugar-phosphate ([3]; pLC): 0 | Fold Change thiamine ([3]; pLC): 0 | Fold Change thymine ([3]; pLC): 0 | Fold Change tryptophan ([3]; pLC): 0 | Fold Change uric acid ([3]; pLC): 0 | Fold Change urocanic acid ([3]; pLC): 0 | Fold Change xanthosine (diH2O) ([3]; pLC): 0 | Fold Change zeatin ([3]; pLC): 0

O=C(O)COc1ccc(Cl)cc1Cl [2,4-D]
Dev. leafWidth [2]: −1 | Dev. leafCurling [2]: 1 | Dev. leafTwisting [2]: 2 | Dev. matureLeafAnthocyanins [2]: 1 | Dev. matureLeafChlorosis [2]: 2 | Dev. matureLeafNecrosis [2]: 0 | Dev. newLeafAnthocyanins [2]: 0 | Dev. newLeafChlorosis [2]: 1 | Dev. newLeafNecrosis [2]: 0 | Dev. pointedLeaves [2]: 0 | Symptom Class [2]: 5 | Dev. tMic [2]: 2

COC(=O)NS(=O)(=O)c1ccc(N)cc1 [Asulam]
No. of Lethal Genes Altered [1]: 5

CCSC(=O)N(CC(C)C)CC(C)C [Butylate]
phenotype / hierarchical clustering of the eleven phenotypic characteristics [4]: neither showed a strong herbicidal phenotype | stress related (commonly regulated) metabolites [5]: neither butylate nor chlorpropham treatment resulted in many changes

CC(C)C1(C)N=C(c2ncccc2C(=O)O)NC1=O (stereo not shown) [Imazapyr]
characteristic symptoms (morphological phenotype) [2]: anthocyanin accumulation in the older leaves accompanied by chlorosis of the newly emerging leaves | stress related (commonly regulated) metabolites [5]: Only a few, if any

CN(C)C(=O)Nc1ccc(Cl)c(Cl)c1 [Diuron]
characteristic symptoms (morphological phenotype) [2]: rapid and widespread leaf necrosis | Dev. leafWidth [2]: −2 | Dev. leafCurling [2]: 1 | Dev. leafTwisting [2]: 0 | Dev. matureLeafAnthocyanins [2]: 0 | Dev. matureLeafChlorosis [2]: 2 | Dev. matureLeafNecrosis [2]: 4 | Dev. newLeafAnthocyanins [2]: 0 | Dev. newLeafChlorosis [2]: 2 | Dev. newLeafNecrosis [2]: 4 | Dev. pointedLeaves [2]: 1 | Symptom Class [2]: 7 | Dev. tMic [2]: 1

CSc1nnc(C(C)(C)C)c(=O)n1N [Metribuzin]
characteristic symptoms (morphological phenotype) [2]: rapid and widespread leaf necrosis

c1cc[n+]2c(c1)-c1cccc[n+]1CC2 [Diquat]
characteristic symptoms (morphological phenotype) [2]: rapid and widespread leaf necrosis | Dev. leafWidth [2]: −2 | Dev. leafCurling [2]: 2 | Dev. leafTwisting [2]: 0 | Dev. matureLeafAnthocyanins [2]: 0 | Dev. matureLeafChlorosis [2]: 1 | Dev. matureLeafNecrosis [2]: 4 | Dev. newLeafAnthocyanins [2]: 0 | Dev. newLeafChlorosis [2]: 1 | Dev. newLeafNecrosis [2]: 4 | Dev. pointedLeaves [2]: 1 | Symptom Class [2]: 7 | Dev. tMic [2]: 2

C[n+]1ccc(-c2cc[n+](C)cc2)cc1 [Paraquat]
characteristic symptoms (morphological phenotype) [2]: rapid and widespread leaf necrosis | Dev. leafWidth [2]: −1 | Dev. leafCurling [2]: 2 | Dev. leafTwisting [2]: 0 | Dev. matureLeafAnthocyanins [2]: 0 | Dev. matureLeafChlorosis [2]: 1 | Dev. matureLeafNecrosis [2]: 4 | Dev. newLeafAnthocyanins [2]: 0 | Dev. newLeafChlorosis [2]: 1 | Dev. newLeafNecrosis [2]: 4 | Dev. pointedLeaves [2]: 1 | Dev. tMic [2]: 2

CCNc1nc(Cl)nc(NC(C)C)n1 [Atrazine]
characteristic symptoms (morphological phenotype) [2]: rapid and widespread leaf necrosis

CC[C@@H]([C@H](C)O)n1ncn(-c2ccc(N3CCN(c4ccc(OC[C@@H]5CO[C@@](Cn6cncn6)(c6ccc(F)cc6F)C5)cc4)CC3)cc2)c1=O [Posaconazole]
Fold Change: 4-aminobenzoic acid ([3]; platform nLC): 0

O=C(O)c1ccccc1C(=O)Nc1cccc2ccccc12 [Naptalam]
Regulated Genes: Down [1, 7]: 47 | Regulated Genes: Up [1, 7]: 50 | No. of Lethal Genes Altered [1]: 3

CP(=O)(O)CCC(N)C(=O)O (stereo not shown) [Glufosinate]
Regulated Genes: Down [1, 7]: 54 | No. of Lethal Genes Altered [1]: 10 | characteristic symptoms (morphological phenotype) [2]: Chlorosis and leaf curling | Dev. leafWidth [2]: −2 | Dev. leafCurling [2]: 2 | Dev. leafTwisting [2]: 1 | Dev. matureLeafAnthocyanins [2]: 0 | Dev. matureLeafChlorosis [2]: 3 | Dev. matureLeafNecrosis [2]: 0 | Dev. newLeafAnthocyanins [2]: 0 | Dev. newLeafChlorosis [2]: 3 | Dev. newLeafNecrosis [2]: 0 | Dev. pointedLeaves [2]: 1 | Symptom Class [2]: 3 | Dev. tMic [2]: 1 | stress related (commonly regulated) metabolites [5]: Only a few, if any

CNc1cnn(-c2cccc(C(F)(F)F)c2)c(=O)c1Cl [Norflurazon]
stress related (commonly regulated) metabolites [5]: Only a few, if any

CC(C)N1C(=O)c2ccccc2NS1(=O)=O [Bentazon]
characteristic symptoms (morphological phenotype) [2]: rapid and widespread leaf necrosis

CS(=O)(=O)c1cc(C(F)(F)F)ccc1C(=O)c1cnoc1C1CC1 [Isoxaflutole]
alterations in the expression of genes involved in the homogentisate biosynthetic pathway ([1]; MOA1, 1 hr): not observed | No. of Lethal Genes Altered [1]: 15 | Alpha-tocopherol level relative to the control ([5]; early time points): not significantly changed | phenylalanine level relative to the control [5, 8]: up-regulated; also recorded: began to accumulate relative to the control | tyrosine level relative to the control [5, 8]: up-regulated; also recorded: began to accumulate relative to the control

Nc1nc[nH]n1 [Amitrole]
characteristic symptoms (morphological phenotype) [2]: leaf bleaching and leaf enlargement | phenotype / hierarchical clustering of the eleven phenotypic characteristics [4]: exhibited chlorosis and not true bleaching

O=C(O)CNCP(=O)(O)O [Glyphosate]
characteristic symptoms (morphological phenotype) [2]: anthocyanin accumulation in the older leaves accompanied by chlorosis of the newly emerging leaves | Dev. leafWidth [2]: 0 | Dev. leafCurling [2]: 0 | Dev. leafTwisting [2]: 0 | Dev. matureLeafAnthocyanins [2]: 3 | Dev. matureLeafChlorosis [2]: 1 | Dev. matureLeafNecrosis [2]: 3 | Dev. newLeafAnthocyanins [2]: 1 | Dev. newLeafChlorosis [2]: 2 | Dev. newLeafNecrosis [2]: 0 | Dev. pointedLeaves [2]: 1 | Symptom Class [2]: 4 | Dev. tMic [2]: 2 | growth of M. grisea with ammonium or glutamine as nitrogen source ([6]; 250 μg/ml): Little growth defect | growth of M. grisea with nitrate or glutamate as nitrogen source ([6]; 250 μg/ml): inhibited growth | growth of M. grisea with nitrite as the sole nitrogen source ([6]; 250 μg/ml): inhibited growth | growth results for Tiers 3 and 4 as compared to Unknown 4 ([6]; 250 μg/ml): nearly identical | growth inhibition of M. grisea and its remediation ([6]; 1.0 mg/ml): remediated by inclusion of aromatic amino acids | tyrosine level relative to the control [5, 8]: decreased relative to the control
